This note sets out measurements from patent publication US12063929B2, “3′-alkynyl abscisic acid derivatives as ABA antagonists” (University of Saskatchewan, priority 2018, dated 2024).

Common to all, as to format: in vivo
For one assay, the system named is Lentil (CDC Maxim). Nature of the assay: Lentil (CDC Maxim) seed germination assay. The following applies: for lentil seed germination, antagonism of ABA: 10 μM ABA plus 10 μM compound (FIG. 6C); for antagonist activity, lentil germination: 10 uM versus 10 uM ABA; for antagonist activity, lentil germination / agonist activity, lentil germination: data not shown; for agonist activity, lentil germination: 10 uM. How it is done:
40 seeds were counted for each 100×15 mm petri dishes. Each petri dish contained two filter papers and 10 mL of test solutions. Then, they were wrapped with aluminium foil to cut off light. Wrapped plates were kept on lab bench at room temperature. Germinated seeds were counted everyday until one treatment reaches 100% germination (two days). Only light exposure was during plate counting. […]
All seeds from this experiment have been rinsed first with tap water and then with dH2O, frozen in liquid nitrogen and stored at −80° C. freezer.

The subject of assay [1] is Canola seed (Nutrien PV200). Nature of the assay: Canola seed germination assay. The following applies: 10 μM ABA, 8 day study (FIG. 10). How it is done: For each treatment 6 replicates of 40 seeds were plated into petri dishes lined with two filter papers and 10 mL of test solution. The covered dishes were stored at room temperature in the dark. Germinated seeds were counted every 2 days for 8 days. The following dosages were used when studying the effect of exemplary compounds on canola germination: control 1% DMSO. 10 μM ABA, 100 μM 1019, and 100 μM 1019 plus 10 μM ABA.

For the next assay, the system named is Hard Red Spring wheat. Nature of the assay: Hard Red Spring wheat seedling growth (root and shoot length). The following applies: 10 μM ABA, 72 h. How it is done:
For each treatment 3 replicates of 10 seeds were plated into petri dishes lined with two filter papers and 10 mL of test solution. The covered dishes were stored at room temperature in the dark. At 72 hours, germinated seeds were scored for root length and shoot length. The following dosages were used when studying the effect of the exemplary ABA analogues of the application on wheat shoot and root growth: control 1% DMSO. 10 μM ABA, 10 μM 1019, 100 μM exemplary compound 1019, 10 μM exemplary compound 1019 plus 10 μM ABA […] and 100 μM exemplary compound 1019 plus 10 μM ABA […].

Setting [2] is: 100 μM compound, in the presence of 10 μM ABA (FIG. 5).
Where [3] appears, read: 100 μM compound alone, compared to control (FIG. 6A).
Where [4] appears, read: 100 μM compound plus 10 μM ABA (FIG. 6B).

As to `CC1=C(/C=C/c2ccccc2)C(=O)CC(C)(C)[C@@]1(O)/C=C/C(C)=C\C(=O)O` [Compound 1090, (2Z,4E)-5-((S)-1-hydroxy-2,6,6-trimethyl-4-oxo-3-((E)-styryl)cyclohex-2-en-1-yl)-3-methylpenta-2,4-dienoic acid], in the assay with Lentil (CDC Maxim) (setting [2]), the lentil seed germination entry is recorded as “promoted”.
Consider `CC1=C(C#CC2CCCCC2)C(=O)CC(C)(C)[C@@]1(O)/C=C/C(C)=C\C(=O)O` [Compound 1100, (2Z,4E)-5-((S)-3-(cyclohexylethynyl)-1-hydroxy-2,6,6-trimethyl-4-oxocyclohex-2-en-1-yl)-3-methylpenta-2,4-dienoic acid], for which the “lentil seed germination, antagonism of ABA” value in the assay on Lentil (CDC Maxim) is “effective antagonists”. Besides, the lentil seed germination entry with Lentil (CDC Maxim) (setting [3]) is reported as “no effect”; in the assay on Lentil (CDC Maxim) (setting [4]) it was “overcame the effect”.
Turning to `CC1=CC(=O)CC(C)(C)[C@@]1(O)/C=C/C(C)=C\C(=O)O` [ABA, (2Z,4E)-5-[(1S)-1-hydroxy-2,6,6-trimethyl-4-oxocyclohex-2-en-1-yl]-3-methylpenta-2,4-dienoic acid, reference compound], the lentil seed germination entry in the assay on Lentil (CDC Maxim) (10 uM ABA alone, day one (FIG. 3A)) is “completely inhibited”. The canola seed germination result in assay [1] is listed as “inhibited seed germination”. Besides, the shoot growth entry in the assay on Hard Red Spring wheat was “inhibited”.
Turning to `CCC(O)(C#CC1=C(C)[C@](O)(/C=C/C(C)=C\C(=O)O)C(C)(C)CC1=O)CC` [Compound 1059, (2Z,4E)-5-((S)-3-(3-ethyl-3-hydroxypent-1-yn-1-yl)-1-hydroxy-2,6,6-trimethyl-4-oxocyclohex-2-en-1-yl)-3-methylpenta-2,4-dienoic acid], in the assay with Lentil (CDC Maxim), the “antagonist activity, lentil germination” value was “weak antagonist activity” and the “agonist activity, lentil germination” value is reported as “no agonist activity”.
As for `CC1=C(C#Cc2ccc(O)cc2)C(=O)CC(C)(C)[C@@]1(O)/C=C/C(C)=C\C(=O)O` [Compound 1091, (2Z,4E)-5-((S)-1-hydroxy-3-((4-hydroxyphenyl)ethynyl)-2,6,6-trimethyl-4-oxocyclohex-2-en-1-yl)-3-methylpenta-2,4-dienoic acid], in the assay on Lentil (CDC Maxim), the “lentil seed germination, antagonism of ABA” value is listed as “effective antagonists”. In addition, the results for the lentil seed germination result in the assay on Lentil (CDC Maxim) (setting [3]) and in the assay on Lentil (CDC Maxim) (setting [4]) were “no effect” and “overcame the effect”, respectively.
Turning to `CC1=C(C#C/C(C)=C\CO)C(=O)CC(C)(C)[C@@]1(O)/C=C/C(C)=C\C(=O)O` [Compound 1063, (2Z,4E)-5-((S)-1-hydroxy-3-((Z)-5-hydroxy-3-methylpent-3-en-1-yn-1-yl)-2,6,6-trimethyl-4-oxocyclohex-2-en-1-yl)-3-methylpenta-2,4-dienoic acid], in the assay with Lentil (CDC Maxim), the “antagonist activity, lentil germination” value is “weak antagonist activity” and the “agonist activity, lentil germination” value is “no agonist activity”.
`CCc1ccc(C#CC2=C(C)[C@](O)(/C=C/C(C)=C\C(=O)O)C(C)(C)CC2=O)cc1` [Compound 1025, (2Z,4E)-5-((S)-3-((4-Ethylphenyl)ethynyl)-1-hydroxy-2,6,6-trimethyl-4-oxocyclohex-2-en-1-yl)-3-methylpenta-2,4-dienoic acid]: in the assay on Lentil (CDC Maxim) (compound at 1 uM), the lentil seed germination result is reported as “most highly promoted”.
As to `CC1=C(c2ccccc2)C(=O)CC(C)(C)[C@@]1(O)/C=C/C(C)=C\C(=O)O` [Compound 1080, (2Z,4E)-5-((S)-3-hydroxy-2,4,4-trimethyl-6-oxo-3,4,5,6-tetrahydro-′[1,1′-biphenyl]-3-yl)-3-methylpenta-2,4-dienoic acid], in the assay with Lentil (CDC Maxim) (setting [2]), the lentil seed germination entry is “weakly promoted”.
